The text below walks through data of patent US20100099634A1, “MACROLIDE COMPOUNDS ENDOWED WITH ANTIINFLAMMATORY ACTIVITY” (Zambon S.p.A, priority 2006, published 2010).

A word on the IC20: it is the concentration at which the effect reaches the 20% level. Low readings indicate greater potency, high ones weaker potency. Usually IC50 stands for the midpoint of a concentration-inhibition curve. As a reminder, the IC80 is the point of the concentration-response curve where the effect stands at 80%. Read a low IC80 as greater potency.

For assay [1], the system named is oedema in mouse ear induced with PMA (phorbol myristate acetate). The assay is described as follows: Acute contact dermatitis: TPA-induced ear oedema in mice. Format: in vivo. The settings on record: CD1 mice, 500 μg/ear topical in TPDS 30 minutes before 0.01% TPA, ear weight six hours later, vs TPA alone. The protocol:
The antiinflammatory activity was evaluated by means of inhibition of the oedema in mouse ear induced with PMA (phorbol myristate acetate). A) Acute Contact Dermatitis Groups of 5 CD1 mice (18-24 g) were used. All the macrolide derivatives were dissolved in Trans-phase Delivery System (TPDS), a carrier containing 10% benzyl alcohol, 40% acetone and 50% isopropanol. 15 microlitres of the compounds (500 μg/ear), dissolved in TPDS, were applied topically to the inner surface of an ear; 30 minutes later, 12 microlitres of a solution of tetradecanoylphorbol acetate (TPA) at a concentration of 0.01% dissolved in acetone were applied to the same area. Six hours later, the animals were sacrificed by inhalation of CO2. The degree of oedema was calculated by subtracting the weight of a specified section of the untreated ear from that of the contralateral treated ear. To determine the degree of remission of the oedema, the weight difference of the groups treated with TPA+macrolides was then compared with the groups treated with TPA alone. The activity of the macrolides was measured by using the modified method of Zunic et al. (1998): MDL (Lysyl) GDP, a non-toxic muramyl dipeptide derivative inhibits cytokine production by activated macrophages and protects mice from phorbol ester- and oxazolone-induced inflammation (J. Invest. Dermatol., 111(1), 77-82).

The subject of assay [2] is Escherichia coli (ATCC 25922). The assay is described as follows: Antibiotic activity by turbidimetric assay of bacterial growth. Type of assay: cell-based. The note with it: for IC20: concentration that inhibits growth of E. coli ATCC 25922 by 20%; for IC20 / IC50 / IC80: maximum test concentration 100 μM, mean of at least three incubation times; for IC50: concentration that inhibits growth of E. coli ATCC 25922 by 50%; for IC80: concentration that inhibits growth of E. coli ATCC 25922 by 80%; for activity towards bacterial growth (in words): turbidimetric assay, strains sensitive to erythromycin and telithromycin.

With `CC[C@H]1OC(=O)[C@H](C)C(=O)[C@H](C)[C@@H](O[C@@H]2O[C@H](C)C[C@H](N(C)C)[C@H]2O)[C@](C)(OC)C[C@@H](C)C(=O)[C@H](C)[C@H]2N(CCCCn3cnc(-c4cccnc4)c3)C(=O)O[C@]12C` [Telithromycin], in assay [1], the “Oedema (% inhibition)” value was 79.7%. In assay [2] (Escherichia coli, ATCC25922), it took 2.7 µM to reach the 20% level (IC20), the concentration for half-maximal inhibition (IC50) stood at 5.7 µM and it took 14.9 µM to reach the 80% level (IC80). Also, the “activity towards bacterial growth (in words)” value in assay [2] is recorded as “substantial inhibition of the bacterial development”.
For `CC[C@H]1OC(=O)[C@H](C)C(=O)[C@H](C)[C@@H](O[C@@H]2O[C@H](C)C[C@H](N(C)C(=O)c3ccccc3)[C@H]2O)[C@](C)(OC)C[C@@H](C)C(=O)[C@H](C)[C@H]2N(CCCCn3cnc(-c4cccnc4)c3)C(=O)O[C@]12C` [Compound 2, 3′-demethyl-3′-benzoyltelithromycin], in assay [1], the “Oedema (% inhibition)” value amounted to 81.8%. Besides, in assay [2], the IC20 is more than 100 µM, the IC50 is more than 100 µM and the IC80 was more than 100 µM.
Regarding `CC[C@H]1OC(=O)[C@H](C)[C@@H](O[C@H]2C[C@@](C)(OC)[C@@H](O)[C@H](C)O2)[C@H](C)[C@@H](O[C@@H]2O[C@H](C)C[C@H](N(C)C)[C@H]2O)[C@](C)(O)C[C@@H](C)C(=O)[C@H](C)[C@@H](O)[C@]1(C)O` [Erythromycin], in assay [1], the “Oedema (% inhibition)” value came to 42%. In assay [2] (Escherichia coli, ATCC25922), this compound registered a 20% effect concentration (IC20) of 3 µM, an IC50 of 7.8 µM and an IC80 of 24.3 µM. The “activity towards bacterial growth (in words)” value in assay [2] was “substantial inhibition of the bacterial development”.
For the compound `CC[C@H]1OC(=O)[C@H](C)[C@@H](O[C@H]2C[C@@](C)(OC)[C@@H](O)[C@H](C)O2)[C@H](C)[C@@H](O[C@@H]2O[C@H](C)C[C@H](N(C)C)[C@H]2O)[C@](C)(O)C[C@@H](C)CN(C)[C@H](C)[C@@H](O)[C@]1(C)O` [Azithromycin], the “Oedema (% inhibition)” value in assay [1] was determined as 40%.
With `CCC1OC(=O)C(C)C(=O)C(C)C(OC2OC(C)CC(N(C)C(C)=O)C2O)C(C)(OC)CC(C)C(=O)C(C)C2N(CCCCn3cnc(-c4cccnc4)c3)C(=O)OC12C` (stereo not shown) [Compound 1, 3′-demethyl-3′-acetyltelithromycin], the “Oedema (% inhibition)” value in assay [1] is on record as 81.7%. In assay [2], this compound returned a 20% effect concentration (IC20) of more than 100 µM, an IC50 of more than 100 µM and an IC80 of more than 100 µM.
